Where two headings read alike, the source gives them in different places.
Tests used:
[1] = tested on: MDA-MB-231; experiment: MTT cytotoxicity assay, MDA-MB-231 cells; format: cell-based, human; details: MTT
Description: (§1) The cytotoxicity of 1–11CA was assessed against human breast cancer MCF-7 and MDA-MB-231 cells, and non-tumorigenic adherent mouse fibroblast connective tissue L929 cells using the MTT assay after 24 and 72 h (Tables S5 ^† and Table 1, respectively).
(§2) Then, necessary dilutions were made using the supplement DMEM, to prepare the range of tested concentrations. Since DMSO was used to solubilize the compounds, a supplemented DMEM + DMSO (at the same percentage as in the sequential dilutions) was considered as a control in the 3-[4,5-dimetylthiazole-2-yl]-2,5-diphenyltetrazolium bromide (MTT) assay.
(§3) L929, MCF-7, and MDA-MB-231 cell lines were cultured in DMEM supplemented with 10% (v/v) FBS and 1% (v/v) of penicillin–streptomycin. The cells were incubated in a humidified chamber at 37 °C under saturated air with a 5% CO2 atmosphere. Cells were passed at 80%–90% of confluency with 0.25% (w/v) trypsin and the cell culture media was changed every 2–3 days.
(§4) The compounds were tested on two breast cancer cell lines (MCF-7 and MDA-MB-231) and L929 fibroblasts, used as a reference for the safety evaluation according to ISO 10993-1:2009 “Biological evaluation of medical devices”. Cells were seeded on sterile 96-well plates at 50 000 cells per well (L929) and 20 000 cells per well (MCF-7 and MDA-MB-231) in supplemented DMEM medium (100 μL) for 24 h. The culture medium was removed and new media containing different concentrations of the compounds (0–1000 μM) was added to the wells (100 μL). Control cells were incubated under the same conditions in the absence of a compound. Cells were incubated for 24 and 72 h under the same conditions described above. Then, the medium was removed, and the cells were incubated with 3-(4,5-dimethylthiazol-2-yl)-2,5-diphenyltetrazolium bromide (MTT; 0.5 mg mL^−1) for 3 h. After this time, the medium was removed, and formazan crystals were solubilized with DMSO (100 μL per well). The absorbance in each well was read on a SynergyTM HT Multimode microplate reader (BioTek Instruments; Winooski, VT, USA) at 570 and 630 nm (for background correction), and the cell viability was calculated according to the following equation (eqn (1)):1 [drawing 3] where OD570(sample) and OD630(sample) are the optical densities of the solutions containing the compounds and OD570(control) and OD630(control) are controls without compound.
(§5) Each apoptosis value determination represents the mean ± standard deviation of 2 independent assays. The IC50 values were obtained using GraphPad Prism software and ANOVA (analysis of variance) was performed to determine the statistical difference between the IC50 values of different cell lines.

[2] = tested on: L929; experiment: MTT cytotoxicity assay, L929 fibroblasts (and selectivity index); format: cell-based, mouse; details: for SI (selectivity index): IC50 L929 divided by average IC50 of the breast cancer cell lines; for IC50: MTT
Description: as §1, §2, §3, §4, §5

[3] = n-octanol/water partition coefficient (shake-flask, ICP-MS)
Description: The saturated solutions were filtered
(DigiPREP Jr. 15ml, 40 Pos, SCP Science). The digestion program was the following: 15
After the digestion, the sample
Samples were further diluted
range. All measurements were performed in triplicates.
lipophilicity of a compound. This assay was performed following the Shake-flask method
organic and aqueous phase. Aliquots of each phase were taken and analyzed separately
range. The partition coefficient was calculated as P!"=
respectively. All measurements were performed in triplicates.

[4] = tested on: pBR322 DNA
Description: The interaction of 11Cl with plasmid DNA was also assessed by visualizing the relaxation of the plasmid using agarose gel electrophoresis (Fig. 4). Different concentrations of the 11Cl were incubated with pBR322 DNA at 37 °C for 24 h and then analyzed by gel electrophoresis (Fig. 4).
Assays were performed using 1.2% (w/v) agarose gels. A plasmid pBR322 DNA was purchased from Thermofisher Scientific® at 0.5 μg μL^−1 concentration in phosphate buffer 50 mM (pH 7.4). A 20 μL portion containing 0.125 μg μL^−1 of DNA in 10 mM Tris-HCl (pH 7.6) and 1 mM EDTA was incubated with increasing volumes of the stock solution of 11Cl (1 mM in DMSO) at ri values ranging from 0.05 to 0.5 (ri = [complex]/[no. nucleotide]). […] 20 μL of the sample was loaded in the agarose gel (1.2% w/v), and electrophoresis was carried out for a period of 100 min at 40 V in TAE 1× (Tris-acetate/EDTA) buffer. After electrophoresis, the gel was immersed in 200 mL of TAE 1× buffer containing 20 μL of a stock solution of SYBR safe for 30 min to stain the DNA. Then, the gel was washed with Mili Q water for 10 min and the stained gel was analyzed with a blue light in a Safe Imager™ 2.0 (Invitrogen).

[5] = tested on: 14-mer ssDNA 5′–3′ (ATACATGGTACATA); details: 3 : 1 ratio, 37 °C, 24 h
Description: (§6) Tandem mass spectrometry was used to investigate the binding mode interaction of 11Cl with single- (ss) and double-strand (ds) DNA oligomers.[77,78]
(§7) 11Cl was incubated with 14-mer ssDNA 5′–3′ ([…]) and 6-mer dsDNA 5′–3′ (AGGCAG) in a 3 : 1 ratio at 37 °C in MilliQ water. After 24 h the solution was centrifuged with an Amicon® Ultra 0.5 mL centrifugal filter 3 kDa MWCO to remove the unreacted metal complex and excess salts.

[6] = tested on: 6-mer dsDNA 5′–3′ (AGGCAG); details: 3 : 1 ratio, 37 °C, 24 h
Description: as §6, §7

[7] = Stability in solution (ESI-MS, NMR); details: 1 mM
Description: The stability of 11CA under pseudo-physiological conditions was assessed using ESI-MS and ^1H and ^31P NMR spectroscopy.
Stability studies were performed on 11CA over 72 h at 37 °C.
The stability of 11Cl was also monitored over
72 h via 1H and 31P NMR spectroscopy. The complex was fully dissolved in d6-DMSO,
diluted with D2O to reach 10% d6-DMSO in D2O (1 mM final concentration) and, finally,
the pD was adjusted to 7.2 ± 0.1 (neutral conditions). Furthermore, the stability of 11Cl
and 11BPh4 was also assessed in 100% d6-DMSO (1 mM final concentration) as a highly

[8] = molecular target: bovine serum albumin (BSA) (Bos taurus, UniProt P02769); experiment: BSA binding assay (tryptophan fluorescence quenching)
bovine serum albumin (BSA), sequence (P02769 25-607): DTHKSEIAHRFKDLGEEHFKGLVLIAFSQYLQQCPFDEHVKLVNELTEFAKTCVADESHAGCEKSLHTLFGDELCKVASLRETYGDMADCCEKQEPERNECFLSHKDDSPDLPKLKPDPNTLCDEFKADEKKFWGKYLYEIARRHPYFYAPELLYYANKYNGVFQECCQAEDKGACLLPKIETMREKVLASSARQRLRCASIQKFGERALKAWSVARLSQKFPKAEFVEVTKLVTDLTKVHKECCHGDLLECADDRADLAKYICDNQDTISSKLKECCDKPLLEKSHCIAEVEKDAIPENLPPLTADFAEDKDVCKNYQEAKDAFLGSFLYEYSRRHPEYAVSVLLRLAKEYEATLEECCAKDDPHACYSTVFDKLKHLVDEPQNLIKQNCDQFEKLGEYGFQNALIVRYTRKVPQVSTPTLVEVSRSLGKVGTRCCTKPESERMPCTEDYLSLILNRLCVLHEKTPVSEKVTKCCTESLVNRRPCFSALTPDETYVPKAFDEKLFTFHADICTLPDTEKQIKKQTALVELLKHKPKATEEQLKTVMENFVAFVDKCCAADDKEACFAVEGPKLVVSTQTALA
Description: BSA (16 μM) in 10 mM Tris-HCl pH 7.6 + 1 mM EDTA solution and varying concentrations of 11Cl (0–32 μM) were incubated at 37 °C for 24 h. Afterward, the fluorescence spectra were measured for each solution between 300 and 500 nm (λex = 280 nm). The intensity at λmax (340 nm) was recorded.

Compound: Cc1ccccc1.[Cl-].[Cl][Ru+]([PH](c1ccccc1)(c1ccccc1)c1ccccc1)[PH](c1ccccc1)(c1ccccc1)c1ccccc1 [Compound 11Cl, [Ru(η^6-toluene)(PPh3)2Cl]Cl]
- IC50 ([1]; 24 h exposure, read-out: IC50 (µM) (average ± standard deviation) 24 h MDA-MB-231): 5.5 ± 0.6 µM
- IC50 ([1]; 72 h exposure, read-out: IC50 (μM) (average ± standard deviation) 72 h MDA-MB-231): 0.086 ± 0.006 µM
- selectivity for the breast cancer cell lines compared to the healthy ones [2]: ~10 fold
- SI (selectivity index) ([2]; 24 h): 1.1
- IC50 ([2]; 24 h exposure, read-out: IC50 (µM) (average ± standard deviation) 24 h L929): 5.3 ± 0.7 µM
- SI (selectivity index) ([2]; 72 h): 11.8
- IC50 ([2]; 72 h exposure, read-out: IC50 (μM) (average ± standard deviation) 72 h L929): 0.87 ± 0.05 µM
- LogPow [3]: 1.48 ± 0.29
- stabilization of the linear form of plasmid DNA ([4]; 37 °C, 24 h, ri 0.01–0.5): did not induce the stabilization of the linear form
- precipitation of DNA ([4]; all studied concentrations): no precipitation was observed
- ri ratio from which alterations in the supercoiled structure (tailing, slight retardation) appear ([4]; ri = [11Cl]/[DNA bp], 37 °C, 24 h): ≥ 0.2
- identified ssDNA ions containing ruthenium [5]: 43%
- identified dsDNA ions containing ruthenium [6]: 23%
- stability by NMR spectroscopy in neutral conditions ([7]; 10% d6-DMSO in D2O, pD 7.2, 72 h): No signs of hydrolysis or decomposition were observed
- stability in DMSO (NMR) ([7]; 100% d6-DMSO, 72 h): No changes were observed
- bimolecular quenching rate kq (BSA) ([8]; BSA 16 μM, 37 °C, 24 h): 1.9e+12 M⁻¹ s⁻¹
- binding constant to BSA ([8]; BSA 16 μM, 37 °C, 24 h): 560000 M⁻¹
- KSV (BSA) ([8]; Table S8): 1.13 ± 0.08 104 M−1
- kq (BSA) ([8]; Table S8): 1.88 ± 0.14 1012 M−1
- n (number of binding sites, BSA) ([8]; Table S8): 1.4
- n (number of binding sites in BSA) ([8]; estimated value): ~1

— article PMC10442743 (Dalton Transactions (Cambridge, England : 2003), 2023)
